According to patent US11389456B2, “Compounds and methods for treating oxalate-related diseases” (OxaluRx, Inc., priority 2018, dated 2022):
In brackets after ≈: the same amount, converted by molar mass.

Key:
[1] = Stability in human plasma; type: in vitro ADME; details: read-out: Plasma Stability T1/2
Summary of the method: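 Pooled human plasma (pH 7.4-8) at 37° C, test compound spiked from a 0.02 mM solution in phosphate buffer with 0.5% BSA. Samples taken at 0, 5, 15, 30, 45 and 60 min, quenched with acetonitrile containing internal standard, and remaining compound measured by LC/MS.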

[2] = target: glycolate oxidase (GOX) in HepaRG-CAR cells (Homo sapiens (Human), UniProt Q9UJM8); assay: HepaRG-CAR cell-based assay for quantitation of glycolate oxidase inhibition (cellular glycolate flux, GC-MS); details: HepaRG-CAR cells, 500 μM glycolate, 48 hours incubation; read-out: IC50
glycolate oxidase (GOX) in HepaRG-CAR cells, sequence (Q9UJM8 whole entry): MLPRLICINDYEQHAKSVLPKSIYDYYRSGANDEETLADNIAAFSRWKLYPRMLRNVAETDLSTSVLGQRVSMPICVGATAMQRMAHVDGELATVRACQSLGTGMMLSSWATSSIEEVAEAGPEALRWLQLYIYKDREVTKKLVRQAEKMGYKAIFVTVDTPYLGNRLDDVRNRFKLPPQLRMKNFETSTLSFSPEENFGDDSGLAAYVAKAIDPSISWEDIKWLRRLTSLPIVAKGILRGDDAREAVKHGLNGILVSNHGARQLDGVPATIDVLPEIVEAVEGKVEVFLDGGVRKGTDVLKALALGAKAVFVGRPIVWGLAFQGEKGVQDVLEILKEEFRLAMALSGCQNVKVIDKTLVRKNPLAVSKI

[3] = Protein binding (plasma equilibrium dialysis); type: in vitro ADME; details: 5 hours at 37° C.
Summary of the method: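 Compound spiked into plasma at 1 μM final (0.2% DMSO) and dialysed against phosphate buffer for 5 hours at 37 °C with shaking. Donor and receiver samples, matrix-matched and acetonitrile-quenched with internal standard, quantified by LC/MS/MS alongside 0-hour plasma samples.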

[4] = Solubility in aqueous solution (deionized, distilled water); type: physicochemical; details: kinetic from dmso stock, 1% DMSO, read-out: Aqueous Solubility H2O
Summary of the method: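 DMSO stock (10 mM) diluted into 100 mM phosphate buffer pH 7.4, or into deionized distilled water for the aqueous assay, at 1% final DMSO and shaken 1 h at room temperature. After centrifugation, supernatants quantified by LC-MS/MS against a calibration curve with internal standard.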

half-life at 2 μM [1]: 42.3 min | IC50 [2]: 1000 nM | recovery at 5 h, 1 μM [3]: 75.4% | solubility at 1 h [4]: 83.8 µM (≈ 21.4 µg/mL)
Structure (SMILES): O=C(O)c1nn[nH]c1Sc1ccc(Cl)cc1 [Example I-001, 5-((4-chlorophenyl)thio)-1H-1,2,3-triazole-4-carboxylic acid]
